# Experiments:
# Type in all cases: cell-based, human
# [1] = system: PBMCs from cancer patients; assay: IFNγ ELISPOT with HLA Class I / Class II blocking; settings: anti-Class I W6/32 or anti-Class II Tü39; FIG. 11B
# Method: PBMCs from healthy donors or cancer patients were stimulated with 80 μg of arginase-derived peptides and 120 U/ml IL-2 (Peprotech, London, UK, cat. 200-02) for a week. 4-6×10^5 PBMCs were then placed in the bottom of ELISPOT plate (nitrocellulose bottomed 96-well plates by MultiScreen MAIP N45; Millipore, cat. MSIPN4W50) pre-coated with IFN-y capture Ab (Mabtech, cat. 3420-3-1000) and 1-10 μg of arginase derived peptides were added. PBMCs from each patient and donors were set up in duplicates or triplicates for peptide and control stimulations. Cells were incubated in ELISPOT plates in the presence of an antigen for 14-16 hours after which they are washed off and secondary biotinylated Ab (Mabtech, cat. 3420-6-1000) was added. After 2 h incubation unbound secondary antibody was washed off and streptavidin conjugated alkaline phosphatase (AP) (Mabtech, cat. 3310-10) was added for 1 h. Next, unbound conjugated enzyme is washed off and the assay is developed by adding BCIP/NBT substrate (Mabtech, cat. 3650-10). Developed ELISPOT plates were analysed on CTL ImmunoSpot S6 Ultimate-V analyzer using Immunospot software v5.1. Responses were calculated as the difference between average numbers of spots in wells stimulated with Arginase-1 peptides and control wells. […]
# [2] = system: arginase-specific CD4+ T-cell culture; assay: Recognition by arginase-specific CD4+ T-cell culture (ArgShort-stimulated); settings: for recognition by T-cell culture specific against the minimal arginase epitope: IFNγ ELISPOT and intracellular staining, FIG. 11C
# Method: PBMCs from healthy donors or cancer patients were stimulated with 80 μg of arginase-derived peptides and 120 U/ml IL-2 (Peprotech, London, UK, cat. 200-02) for a week. 4-6×10^5 PBMCs were then placed in the bottom of ELISPOT plate (nitrocellulose bottomed 96-well plates by MultiScreen MAIP N45; Millipore, cat. MSIPN4W50) pre-coated with IFN-y capture Ab (Mabtech, cat. 3420-3-1000) and 1-10 μg of arginase derived peptides were added. PBMCs from each patient and donors were set up in duplicates or triplicates for peptide and control stimulations. Cells were incubated in ELISPOT plates in the presence of an antigen for 14-16 hours after which they are washed off and secondary biotinylated Ab (Mabtech, cat. 3420-6-1000) was added. After 2 h incubation unbound secondary antibody was washed off and streptavidin conjugated alkaline phosphatase (AP) (Mabtech, cat. 3310-10) was added for 1 h. Next, unbound conjugated enzyme is washed off and the assay is developed by adding BCIP/NBT substrate (Mabtech, cat. 3650-10). Developed ELISPOT plates were analysed on CTL ImmunoSpot S6 Ultimate-V analyzer using Immunospot software v5.1. Responses were calculated as the difference between average numbers of spots in wells stimulated with Arginase-1 peptides and control wells.
# Arginase-specific T cell culture were established by stimulation of cancer patient PBMC with irradiated ArgShort (SEQ ID NO 9) peptide-loaded autologous DC or PBMCs. The following day IL-7 and IL-12 (PeproTech, London, UK, cat. 200-07-10 and 200-12) were added. Stimulation of the cultures were carried out every 8 days with ArgShort peptide loaded irradiated autologous DC followed by ArgShort peptide-loaded irradiated autologous PBMC. The day after peptide stimulation IL-2 […]. After 5 stimulations arginase-specific T cells were enriched using TNF-α cell enrichment kit (MiltenyiBiotec, cat. 130-091-269).
# Flow cytometry analysis was performed on a FACSCanto™ II (BD Biosciences, San Jose CA, USA). […]
# [3] = system: PBMCs from two healthy donors and one cancer patient; assay: Intracellular staining for IFNγ and TNFα release in PBMCs
# Method: Flow cytometry analysis was performed on a FACSCanto™ II (BD Biosciences, San Jose CA, USA). Intracellular staining of cell cultures was performed after the cells were stimulated with 20-mere peptides for 5 hours or 30-mere peptides for 8h (BD GolgiPlug™ cat. 555029, was added after the first hour). The cells were then stained for surface markers, then washed and permeabilized by using Fixation/Permeabilization and Permeabilization Buffer (eBioscience, cat. 00-5123-43), according to manufacturer's instructions. Antibodies used: IFNγ-APC (cat. 341117), TNFα-BV421 (cat. 562783), CD4-FITC (cat. 347413), CD8-PerCP (cat. 345774) (all from BD Biosciences). Dead cells were stained using FVS510 (564406, BD Biosciences) according to manufacturer's instructions.
# To investigate which types of T cells reacted to the peptide epitopes in the hot-spot region, we performed intracellular staining for IFNγ and TNFα release in PBMCs from two healthy donors and one cancer patient, which had shown responses against the Arg(161-190) peptide in IFNγ ELISPOT.
# [4] = system: PBMCs from healthy donors or cancer patients; assay: IFNγ ELISPOT on PBMCs after one week peptide and IL-2 stimulation (Example 2); settings: selected PBMCs from cancer patients and healthy donors; one week stimulation with IL-2; FIG. 10B, 10C
# Method: PBMCs from healthy donors or cancer patients were stimulated with 80 μg of arginase-derived peptides and 120 U/ml IL-2 (Peprotech, London, UK, cat. 200-02) for a week. 4-6×10^5 PBMCs were then placed in the bottom of ELISPOT plate (nitrocellulose bottomed 96-well plates by MultiScreen MAIP […]; Millipore, cat. MSIPN4W50) pre-coated with IFN-y capture Ab (Mabtech, cat. 3420-3-1000) and 1-10 μg of arginase derived peptides were added. PBMCs from each patient and donors were set up in duplicates or triplicates for peptide and control stimulations. Cells were incubated in ELISPOT plates in the presence of an antigen for 14-16 hours after which they are washed off and secondary biotinylated Ab (Mabtech, cat. 3420-6-1000) was added. After 2 h incubation unbound secondary antibody was washed off and streptavidin conjugated alkaline phosphatase (AP) (Mabtech, cat. 3310-10) was added for 1 h. Next, unbound conjugated enzyme is washed off and the assay is developed by adding BCIP/NBT substrate (Mabtech, cat. 3650-10). Developed ELISPOT plates were analysed on CTL ImmunoSpot S6 Ultimate-V analyzer using Immunospot software v5.1. Responses were calculated as the difference between average numbers of spots in wells stimulated with Arginase-1 peptides and control wells. We divided the entire arginase-1 protein sequence into overlapping 20-amino-acid-long peptides, generating a library of 31 peptides covering the whole sequence (SEQ ID NOs 18-48)). Each peptide in the library overlapped with the first 10 amino acids of the following peptide. Using this arginase peptide library and the IFNγ ELISPOT assay, we next screened PBMCs from melanoma patients and healthy donors for spontaneous responses (FIGS. 9A and 9B). The PBMCs were stimulated for one week with a pool of 3-4 adjacent 20-mer arginase library peptides and low-dose IL-2 (120 U/mL). They were then set up for an IFNγ ELISPOT assay to screen for responses against each 20-mer peptide separately. […] Among these overlapping peptides, […]-200), and Arg(191-210) spanned a 50-amino-acid-long region that was deemed a hot-spot region since nearly all patients harbored a response against one or more of these peptides (FIG. 9A). The selected eight peptides were further used to screen for spontaneous immune responses against arginase-1 in PBMCs from eight healthy donors using IFNγ ELISPOT. […] Since we most frequently observed responses against arginase-1 peptides from the hot-spot region, we next analyzed whether longer peptides covering the same sequence could be used instead of four 20-mers. […] We then divided the arginase-1 hot-spot region into two 30-mer peptides that overlapped by 10 amino acids (peptides labelled by reference to start and end position): […]-190) and […]-210). These 30-mer peptides were used to check for responses in selected PBMCs from cancer patients and healthy donors, which had previously shown responses against the 20-mer hot-spot peptides. The PBMCs were stimulated for one week with either […]-190) or […]-210) in the presence of IL-2, and were then used in IFNγ ELISPOT.
# [5] = system: peripheral blood mononuclear cells (PBMC); assay: IFN-gamma ELISPOT secretion assay on PBMC (Example 1)
# [6] = system: T2-cells loaded with peptide; assay: 51Cr-release assay for CTL-mediated cytotoxicity; settings: standard chromium release assay; FIG. 5
# Method: Conventional ^51Cr-release assays for CTL-mediated cytotoxicity were carried out as described elsewhere. Target cells were T2-cells (ATCC), HLA-A2^+ melanoma cell lines (FM3 and FM93)
# In this experiment Arginase specific T cells were incubated 4 h with either Cr-labeled melanoma cell lines FM3 or FM93 at different effector:target ratios. Both cell lines express intracellular Arginase.
Sequence,IFNγ release in response to peptide on blocking HLA Class I or Class II [1],"TNFα release from CD4+ T cells, intracellular staining ([2]; 8 hours of peptide stimulation, FIG. 11C right)",recognition by T-cell culture specific against the minimal arginase epitope [2],"TNFα release from CD4+ T cells ([3]; 8-hour incubation with peptide, FIG. 11A)","response from CD8+ T cells ([3]; some samples, data not shown)",IFNγ ELISPOT responses against longer hot-spot peptides [4],"specific T-cell responses against Arg-derived peptide ([5]; IFN-gamma ELISPOT, PBMC from six melanoma patients, FIG. 1)","Immune responses against Arg 8 peptide ([5]; PBMC from 6 cancer patients, specific cells/3×10e5 cells, FIG. 2)",killing of peptide-loaded target cells by CD8 positive culture [6]
"GFSWVTPCISAKDIVYIGLRDVDPGEHYIL (Peptide fragment of human Arginase 1) [Arg(161-190), 30-mer, positions 161-190 of human Arginase 1]",partially blocked the IFNγ release,TNFα release from CD4+ T cells,recognized,detected TNFα release from CD4+ T cells,minor response,high responses,,,
"GFSWVTPCISAKDIVYIGLRDVDPGEHYILKTLGIKYFSMTEVDRLGIGK (Peptide fragment of human Arginase 1) [50-mer peptide, 50-mer covering the entire hot-spot region, positions 161-210 of human Arginase 1]",,,not recognized,,,lower responses compared to the 20-mer peptides,,,
"IVYIGLRDV (Peptide fragment of human Arginase 1) [Arg8, positions 174-182 of human Arginase 1]",,,,,,,Strong responses,Very strong responses were frequently detected,can kill target cells loaded with Arg8

# Source: patent US11981944B2, “Immunogenic arginase peptides” (IO Biotech ApS, priority 2016, dated 2024)
